Laboratory results taken from US8461183B2, “PPAR agonist compounds, preparation and uses” (Genfit, priority 2008, dated 2013).

Legend:
Type in all cases: cell-based
hPPARγ = target: T1, hPPARγ (Homo sapiens, UniProt P37231); experiment: Gal4-hPPARγ chimera transactivation (luciferase) in COS-7 cells; details: 24 hours; for EC50: luciferase, read-out: PPARγ EC50; for Emax: read-out: PPARγ TOP % (maximum activation)
T1 construct: corresponding to the DEF domains (structural elements of the promoter of the PPARs: D=hinge, EF=ligand fixation domain and AF2 fixation site); expressed in transfected cells; host or cells: COS-7 (monkey kidney fibroblasts)
T1 sequence (P37231 238-503 limits assumed): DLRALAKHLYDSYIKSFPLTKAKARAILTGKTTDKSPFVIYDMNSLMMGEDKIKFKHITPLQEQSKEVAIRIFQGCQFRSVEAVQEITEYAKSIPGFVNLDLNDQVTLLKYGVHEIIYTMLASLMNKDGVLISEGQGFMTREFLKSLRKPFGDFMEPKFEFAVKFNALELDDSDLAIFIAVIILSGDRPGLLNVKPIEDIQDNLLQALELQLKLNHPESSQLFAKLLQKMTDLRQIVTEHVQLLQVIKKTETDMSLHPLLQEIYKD
Description: (§1) Activation of PPARs is evaluated in vitro on a line of monkey kidney fibroblasts (COS-7) by measuring the transcriptional activity of chimeras consisting of the DNA binding domain of Gal4 transcription factor of yeast and of the ligand binding domain of the various PPARs of human origin (hPPAR).
(§2) The COS-7 cells are from ATCC and are cultivated in DMEM medium supplemented with 10% (vol/vol) of fetal calf serum, 1% of penicillin/streptomycin (Biochrom, AG), 1% of amino acids (Gibco) and 1% of sodium pyruvate (Gibco). The cells are incubated at 37° C. in a humid atmosphere containing 5% CO2.
(§3) The plasmids Gal4(RE)_TkpGL3, pGal4-hPPARα, pGal4-hPPARγ, pGal4-hPPARδ and pGal4-φ are described in the literature (Raspe E et al., 1999). The constructs pGal4-hPPARα, pGal4-hPPARγ and pGal4-hPPARδ were obtained by cloning, into the pGal4-φ vector, DNA fragments amplified by PCR corresponding to the DEF domains (structural elements of the promoter of the PPARs: D=hinge, EF=ligand fixation domain and AF2 fixation site) of the human nuclear receptors PPAα, PPARγ and PPARδ.
(§4) The adherent COS-7 cells are transfected with 40 μg of DNA per 225 cm^2 flask, with a pGal4-hPPAR/Gal4(RE)_TkpGL3 ratio of 1/10, in the presence of 10% of fetal calf serum. The cells are then detached and seeded in the absence of serum in 384-well plates (2×10^4 cells/well) then incubated for 4 hours at 37° C. The compounds are then diluted in a 96-well plate and then transferred to the 384-well plate. Activation with the test compounds is effected for a further 24 hours at 37° C. in the presence of 1% of synthetic serum Ultroser™ (Biosepra). These last 2 stages are automated by means of a Genesis Freedom 200™ station (Tecan). At the end of the experiment, the cells are lysed and the luciferase activity is determined using the Steady-Lite™ HTS (Perkin Elmer) according to the supplier's recommendations.
(§5) The test data are summarized in Table 8-1 below, which presents, for each compound, the values of maximum activation (TOP %) and the EC50 values measured for each isoform of PPAR.

hPPARδ = target: T2, hPPARδ (Homo sapiens, UniProt Q03181); experiment: Gal4-hPPARδ chimera transactivation (luciferase) in COS-7 cells; details: COS-7 cells, Gal4-hPPARδ, 24 hours; for EC50: luciferase, read-out: PPARδ EC50; for Emax: read-out: PPARδ TOP % (maximum activation)
T2 construct: corresponding to the DEF domains (structural elements of the promoter of the PPARs: D=hinge, EF=ligand fixation domain and AF2 fixation site); expressed in transfected cells; host or cells: COS-7 (monkey kidney fibroblasts)
T2 sequence (Q03181 211-439 limits assumed): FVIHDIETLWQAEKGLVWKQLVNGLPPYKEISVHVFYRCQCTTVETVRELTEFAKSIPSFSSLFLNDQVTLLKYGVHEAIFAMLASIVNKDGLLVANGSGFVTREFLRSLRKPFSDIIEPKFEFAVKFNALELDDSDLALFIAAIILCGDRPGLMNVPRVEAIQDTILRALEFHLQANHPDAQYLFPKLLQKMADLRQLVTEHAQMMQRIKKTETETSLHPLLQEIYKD
Description: as §1, §2, §3, §4, §5

hPPARα = target: T3, hPPARα (Homo sapiens, UniProt Q07869); experiment: Gal4-hPPARα chimera transactivation (luciferase) in COS-7 cells; details: COS-7 cells, Gal4-hPPARα, 24 hours; for EC50: luciferase, read-out: PPARα EC50; for Emax: read-out: PPARα TOP % (maximum activation)
T3 construct: corresponding to the DEF domains (structural elements of the promoter of the PPARs: D=hinge, EF=ligand fixation domain and AF2 fixation site); expressed in transfected cells; host or cells: COS-7 (monkey kidney fibroblasts)
T3 sequence (Q07869 239-466 limits assumed): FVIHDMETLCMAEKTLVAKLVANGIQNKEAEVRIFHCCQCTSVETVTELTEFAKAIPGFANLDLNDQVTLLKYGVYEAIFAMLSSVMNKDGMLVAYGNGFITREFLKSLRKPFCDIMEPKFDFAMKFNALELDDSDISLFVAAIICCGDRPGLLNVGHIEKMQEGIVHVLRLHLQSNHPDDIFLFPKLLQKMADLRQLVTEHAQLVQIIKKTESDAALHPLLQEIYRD
Description: as §1, §2, §3, §4
The test data are summarized in Table 8-1 below, which presents, for each compound, the values of maximum activation (TOP %) and the EC50 values measured for each isoform of PPAR. The values of maximum activation are expressed in percentages relative to the maximum activations obtained with reference agonists: fenofibric acid for PPARα, rosiglitazone for PPARγ and 2-methyl-4-((4-methyl-2-(4-trifluoromethylphenyl)-1,3-thiazol-5-yl)-methylsulfanyl)phenoxyacetic acid (also called GW501516) for PPARδ.

[1] = relative to maximum activation obtained with rosiglitazone
[2] = relative to maximum activation obtained with GW501516
[3] = relative to maximum activation obtained with fenofibric acid

Compound	EC50 (hPPARγ) [µM]	PPARγ TOP % (maximum activation) (hPPARγ; [1]) [%]	EC50 (hPPARδ) [µM]	PPARδ TOP % (maximum activation) (hPPARδ; [2]) [%]	EC50 (hPPARα) [µM]	PPARα TOP % (maximum activation) (hPPARα; [3]) [%]	Emax (hPPARγ; [1]) [%]	Emax (hPPARδ; [2]) [%]	Emax (hPPARα; [3]) [%]
3-(4-(((2-methoxy-6-furylpyridin-3-yl)methyl)amino)phenyl)propanoic acid [Cpd 31]	3.36	62.35	16.3	86.72	2.49	49.52			
CC(C)(C)Oc1nc(-c2ccccc2)ccc1CNc1ccc(OC(C)(C)C(=O)O)cc1 [Cpd 9, 2-(4-(((2-tert-butyloxy-6-phenylpyridin-3-yl)methyl)amino)phenoxy)-2-methyl-propanoic acid]	6.09		0.464		4.5		23.9	74.2	33.7
CCCCCCOc1nc(-c2ccccc2)ccc1COc1ccc(OCC(=O)O)cc1 [Cpd 15, 2-(4-((2-hexyloxy-6-phenylpyridin-3-yl)methoxy)phenoxy)ethanoic acid]	12.3		1.52		3.24		46.6	96.5	78.2
O=C(O)COc1ccc(OCc2ccc(-c3ccccc3)nc2OC2CCCCC2)cc1 [Cpd 18, 2-(4-((2-cyclohexyloxy-6-phenylpyridin-3-yl)methoxy)phenoxy)ethanoic acid]	14.2		3.97		10.7		26.1	97.1	35.3
COc1nc(-c2ccccc2)ccc1CNc1ccc(C(CC(=O)O)c2ccccc2)cc1 (stereo not drawn) [Cpd 42, 3-(4-((2(-methoxy-6-phenylpyridin-3-yl)methyl)amino)phenyl)-3-phenyl-propanoic acid]	4.36		3.04		5.66		65.8	86.5	16.5
COc1nc(-c2ccccc2)ccc1CNc1ccc(SC(F)(F)C(=O)O)cc1 [Cpd 27, 2-(4-(((2-methoxy-6-phenylpyridin-3-yl)methyl)amino)phenylthio)-2,2-difluoroethanoic acid]	10.6		41.1		3.64		98.7	72.9	99.8
CC(C)(C)Oc1nc(-c2ccccc2)ccc1CNc1ccc(OCC(=O)O)cc1 [Cpd 8]	12.2		2.11		7.92		13.4	72.4	21.9
COc1nc(-c2ccccc2)c(-c2ccccc2)cc1CNc1ccc(SCC(=O)O)cc1 [Cpd 28, 2-(4-(((2-methoxy-5,6-diphenylpyridin-3-yl)methyl)amino)phenylthio)ethanoic acid]	11.3		25.2		1.74		45	49.1	55.4
COc1nc(-c2ccccc2)ccc1CNc1cc(C)c(OCC(=O)O)c(C)c1 [Cpd 35, 2-(4-(((2-methoxy-6-phenylpyridin-3-yl)methyl)amino)-2,6-dimethyl-phenoxy)ethanoic acid]	6.18		1.54		0.647		38.8	13.2	26.1
COc1ncc(-c2ccccc2)cc1CNc1ccc(CCC(=O)O)cc1 [Cpd 41, 3-(4-(((2-methoxy-5-phenylpyridin-3-yl)methyl)amino)phenyl)propanoic acid]	27.2		17		7.36		72.1	107	35.9
O=C(O)COc1ccc(OCc2ccc(-c3ccccc3)nc2N2CCCCC2)cc1 [Cpd 20, 2-(4-((6-phenyl-2-(piperidin-1-yl)pyridin-3-yl)methoxy)phenoxy)ethanoic acid]	30.2		5.26		14.3		43	87.7	34.2
COc1nc(-c2ccccc2)ccc1CNc1ccc(SCC(=O)O)cc1 [Cpd 16, 2-(4-(((2-methoxy-6-phenylpyridin-3-yl)methyl)amino)phenylthio)ethanoic acid]	5.18		3.37		0.51		70	85.2	78
COc1nc(-c2ccccc2)ccc1CNc1cccc(OCC(=O)O)c1 [Cpd 14, 2-(3-(((2-methoxy-6-phenylpyridin-3-yl)methyl)amino)phenoxy)ethanoic acid]	24.3		16.2		33.3		53.7	103	58.4

These reach a lower EC50 (hPPARγ). Values come first.

EC50 (hPPARγ) [µM]	PPARγ TOP % (maximum activation) (hPPARγ; [1]) [%]	EC50 (hPPARδ) [µM]	PPARδ TOP % (maximum activation) (hPPARδ; [2]) [%]	EC50 (hPPARα) [µM]	PPARα TOP % (maximum activation) (hPPARα; [3]) [%]	Emax (hPPARγ; [1]) [%]	Emax (hPPARδ; [2]) [%]	Emax (hPPARα; [3]) [%]	Compound
2.39		3.36		6.43		79.4	97.3	43.2	COc1nc(-c2ccccc2)ccc1CNc1ccc(C(C)CC(=O)O)cc1 (stereo not drawn) [Cpd 45, 3-(4-(((2-methoxy-6-phenylpyridin-3-yl)methyl)amino)phenyl)butanoic acid]
1.92		0.77		0.771		63.7	103	46.8	COc1ncc(-c2ccc3ccccc3c2)cc1CNc1ccc(CCC(=O)O)cc1 [Cpd 50, 3-(4-(((2-methoxy-5-(naphthalen-2-yl)pyridin-3-yl)methyl)amino)phenyl)-propanoic acid]
1.01		10.3		5.14		78	9.86	48.6	CC#CC(CC(=O)O)c1ccc(OCc2ccc(-c3ccccc3)nc2OC)cc1 (stereo not drawn) [Cpd 53, 3-(4-((2-methoxy-6-phenylpyridin-3-yl)methoxy)phenyl)hex-4-ynoic acid]
1.08		1.91		1.9		85	79.2	58.6	COc1ncc(-c2cccc(C(F)(F)F)c2)cc1CNc1ccc(CCC(=O)O)cc1 [Cpd 47, 3-(4-(((2-methoxy-5-(3-(trifluoromethyl)phenyl)pyridin-3-yl)methyl)amino)-phenyl)propanoic acid]
0.402		1.51		1.44		85.6	77.9	44.9	COc1cc(NCc2ccc(-c3ccccc3)nc2OC)ccc1CCC(=O)O [Cpd 43, 3-(2-methoxy-4-(((2-methoxy-6-phenylpyridin-3-yl)methyl)amino)-phenyl)-propanoic acid]
